pIC50, pKi: −log10 of the molar value.

In one data set the target is T1, HDAC6 (Homo sapiens, UniProt Q9UBN7).
T1 sequence (Q9UBN7 1-1215): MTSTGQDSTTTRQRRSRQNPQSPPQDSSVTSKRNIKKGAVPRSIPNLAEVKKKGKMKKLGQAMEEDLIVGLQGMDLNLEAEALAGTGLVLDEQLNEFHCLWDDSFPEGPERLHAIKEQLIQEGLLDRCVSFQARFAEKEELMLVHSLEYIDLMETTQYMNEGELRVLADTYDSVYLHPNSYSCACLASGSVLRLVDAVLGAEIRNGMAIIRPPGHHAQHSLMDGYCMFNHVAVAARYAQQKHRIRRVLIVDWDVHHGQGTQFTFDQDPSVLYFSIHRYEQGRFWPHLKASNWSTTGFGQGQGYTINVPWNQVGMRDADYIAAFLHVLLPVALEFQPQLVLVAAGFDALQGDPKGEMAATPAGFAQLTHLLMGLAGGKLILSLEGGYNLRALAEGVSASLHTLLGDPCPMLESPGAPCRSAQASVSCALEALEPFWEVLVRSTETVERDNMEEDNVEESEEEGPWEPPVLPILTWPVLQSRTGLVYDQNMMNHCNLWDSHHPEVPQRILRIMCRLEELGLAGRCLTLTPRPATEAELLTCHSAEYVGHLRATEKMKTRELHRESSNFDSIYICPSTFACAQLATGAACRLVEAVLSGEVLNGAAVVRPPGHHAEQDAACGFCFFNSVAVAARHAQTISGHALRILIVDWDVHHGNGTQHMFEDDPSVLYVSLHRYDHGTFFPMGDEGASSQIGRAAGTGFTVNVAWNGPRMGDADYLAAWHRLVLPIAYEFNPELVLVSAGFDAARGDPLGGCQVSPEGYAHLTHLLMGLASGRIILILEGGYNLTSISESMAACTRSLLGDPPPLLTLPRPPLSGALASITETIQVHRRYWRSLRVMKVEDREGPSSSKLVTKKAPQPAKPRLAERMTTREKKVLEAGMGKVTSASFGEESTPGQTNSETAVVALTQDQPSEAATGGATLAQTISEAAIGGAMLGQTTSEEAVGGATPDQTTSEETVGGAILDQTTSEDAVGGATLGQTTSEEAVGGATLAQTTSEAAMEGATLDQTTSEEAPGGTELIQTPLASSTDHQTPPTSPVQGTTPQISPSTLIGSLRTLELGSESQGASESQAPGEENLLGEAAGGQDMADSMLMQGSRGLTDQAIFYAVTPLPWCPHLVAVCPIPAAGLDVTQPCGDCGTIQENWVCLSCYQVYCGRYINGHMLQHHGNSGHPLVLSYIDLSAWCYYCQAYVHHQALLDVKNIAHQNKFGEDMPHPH
Kind of data set: Enzyme kinetic parameters, time-based experiments. The format is biochemical. Here is the method:
To determine the kinetic parameters for the formation and maintenance of the HDAC6:1-18 complex, several time-based experiments were performed, which are shown in Table 2.

The test system of another data set is panel of 97 kinases. Kind of data set: Kinome screen. The format is biochemical. To be noted: kinase screen.
Data set [1] in a line: Plasma stability by LC-MS. The format is in vitro ADME. To be noted: mouse plasma. Here is the method:
The stability of select compounds of the application in plasma was assessed quantitatively through LC-MS and the results are shown in Table 6.

The target of a further data set is T2, HDAC7 (Homo sapiens, UniProt Q8WUI4).
T2 sequence (Q8WUI4 1-952): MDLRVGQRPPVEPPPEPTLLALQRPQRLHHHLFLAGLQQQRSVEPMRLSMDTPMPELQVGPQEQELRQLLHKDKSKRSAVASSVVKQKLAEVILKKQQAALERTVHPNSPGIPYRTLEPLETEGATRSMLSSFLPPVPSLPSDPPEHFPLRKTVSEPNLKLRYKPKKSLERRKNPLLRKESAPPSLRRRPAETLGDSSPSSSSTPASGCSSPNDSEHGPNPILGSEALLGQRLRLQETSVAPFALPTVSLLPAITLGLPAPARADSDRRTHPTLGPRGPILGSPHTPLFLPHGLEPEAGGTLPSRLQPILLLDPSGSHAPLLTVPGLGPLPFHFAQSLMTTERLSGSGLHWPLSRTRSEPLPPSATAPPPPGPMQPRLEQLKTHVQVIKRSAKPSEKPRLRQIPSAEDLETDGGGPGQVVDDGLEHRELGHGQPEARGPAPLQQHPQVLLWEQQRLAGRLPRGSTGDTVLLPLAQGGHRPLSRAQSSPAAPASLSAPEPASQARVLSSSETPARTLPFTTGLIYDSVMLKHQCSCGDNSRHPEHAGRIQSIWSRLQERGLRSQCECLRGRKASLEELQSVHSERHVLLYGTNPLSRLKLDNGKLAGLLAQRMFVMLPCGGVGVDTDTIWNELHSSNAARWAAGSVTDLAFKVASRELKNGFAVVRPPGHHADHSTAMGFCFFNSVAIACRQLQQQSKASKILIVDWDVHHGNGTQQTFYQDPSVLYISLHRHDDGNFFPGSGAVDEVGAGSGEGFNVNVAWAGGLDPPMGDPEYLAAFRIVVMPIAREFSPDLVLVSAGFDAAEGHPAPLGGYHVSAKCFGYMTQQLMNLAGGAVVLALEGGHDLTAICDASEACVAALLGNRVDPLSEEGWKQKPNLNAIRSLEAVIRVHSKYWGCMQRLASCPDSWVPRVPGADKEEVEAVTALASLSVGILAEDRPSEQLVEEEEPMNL
The experiment in a line: in vitro activity-based HDAC assay. The format is biochemical. Conditions: human HDAC isoform panel, Table 1.

The test system of a further data set is K562. Kind of data set: Cytotoxicity in cell lines. The format is cell-based. To be noted: Homo sapiens, K562; Table 4; read-out: IC50 K562. Here is the method:
(§1) The cytotoxicity of exemplary compounds of the application was tested in multiple cell lines including MV-4-11, MOLM-13, MCF-7, MRC9, K562 and MM.1S. The therapeutic index was evaluated by determining the toxicity of the exemplary compounds in healthy cell lines including fibroblasts and HUVEC.

Another data set relates to MOLM-13. Kind of data set: Cytotoxicity in cell lines. The class given is cell-based. Conditions: Homo sapiens, MOLM-13; Table 4; read-out: IC50 MOLM-13. Here is the method: as §1
Another data set has as its system MRC9. The experiment in a line: Cytotoxicity in cell lines. The class given is cell-based. To be noted: Table 4. Here is the method:
as §1

A further data set concerns HeLa cells. Kind of data set: Immunofluorescence analysis of α-tubulin and histone H3 acetylation. To be noted: 6 h treatment. The class given is cell-based. The text has this:
Similar analysis is shown for exemplary compound I-34 in FIG. 19.

As for `O=C(NO)c1ccc(CN(Cc2cccnc2)S(=O)(=O)c2cc(F)c(F)c(F)c2F)cc1` [Compound I-18, N-hydroxy-4-((2,3,4,5-tetrafluoro-N-(pyridin-3-ylmethyl)phenylsulfonamido)methyl)benzamide], on HDAC6 (HDAC6), the pKi (as a rule, the negative decadic logarithm of the Ki, by convention in mol/L) is 8.85. Moreover, the negative-log IC50 (pIC50) (as a rule, the IC50 on a negative log10 scale, so that one unit is a factor of ten) against HDAC6 (HDAC6, no preincubation) is 8.40; on HDAC7 it was less than 6.00. The “inhibitory activity on a panel of 97 kinases” value in the data set with panel of 97 kinases is reported as “limited to no inhibitory activity”. Moreover, the half-life (in general, the time needed for the level to fall by half in the phase considered) in data set [1] was 1.82 h. Moreover, in data set [1] (0 min), the “Remaining Percentage (%) 0 min” value is given as 100%. For the same compound, in data set [1] (15 min), the “Remaining Percentage (%) 15 min” value is listed as 96.3%. The “Remaining Percentage (%) 30 min” value in data set [1] (30 min) stood at 63.0%. In data set [1] (45 min), the “Remaining Percentage (%) 45 min” value is given as 54.3%. Further, the “Remaining Percentage (%) 60 min” value in data set [1] (60 min) is 51.3%. Further, the “Remaining Percentage (%) 120 min” value in data set [1] (120 min) is 50.1%.

Take `O=C(NO)c1ccc(CN(C2CC2)S(=O)(=O)c2cc(F)c(F)c(F)c2F)cc1` [Compound I-13, 4-((N-cyclopropyl-2,3,4,5-tetrafluorophenylsulfonamido)methyl)-N-hydroxybenzamide]: the negative-log IC50 (pIC50) in the data set on K562 was 5.13; in the data set with MOLM-13 it was 5.70; in the data set on MRC9, less than 4.30; against HDAC7, less than 6.00. Moreover, in the data set on HeLa cells, the “effect on α-tubulin acetylation (immunofluorescence)” value is reported as “substantially strong effect on tubulin acetylation”.

(Values after patent publication US20220169598A1, “HALOGENATED PHENYLSULFONAMIDE HYDROXAMIC ACID COMPOUNDS, COMPOSITIONS AND USES THEREOF AS SELECTIVE HDAC6 INHIBITORS” (2681603 ONTARIO INC., priority 2019, published 2022).)
